{"source": "patent US20240051938A1", "about": "“SELECTIVE BRD4-DEGRADER MOLECULES” (Regents of the University of Minnesota, priority 2022, published 2024)", "key": {"BRD2 [1]": {"target": "T1, BRD2 (Homo sapiens, UniProt P25440)", "T1 sequence (P25440 whole entry)": "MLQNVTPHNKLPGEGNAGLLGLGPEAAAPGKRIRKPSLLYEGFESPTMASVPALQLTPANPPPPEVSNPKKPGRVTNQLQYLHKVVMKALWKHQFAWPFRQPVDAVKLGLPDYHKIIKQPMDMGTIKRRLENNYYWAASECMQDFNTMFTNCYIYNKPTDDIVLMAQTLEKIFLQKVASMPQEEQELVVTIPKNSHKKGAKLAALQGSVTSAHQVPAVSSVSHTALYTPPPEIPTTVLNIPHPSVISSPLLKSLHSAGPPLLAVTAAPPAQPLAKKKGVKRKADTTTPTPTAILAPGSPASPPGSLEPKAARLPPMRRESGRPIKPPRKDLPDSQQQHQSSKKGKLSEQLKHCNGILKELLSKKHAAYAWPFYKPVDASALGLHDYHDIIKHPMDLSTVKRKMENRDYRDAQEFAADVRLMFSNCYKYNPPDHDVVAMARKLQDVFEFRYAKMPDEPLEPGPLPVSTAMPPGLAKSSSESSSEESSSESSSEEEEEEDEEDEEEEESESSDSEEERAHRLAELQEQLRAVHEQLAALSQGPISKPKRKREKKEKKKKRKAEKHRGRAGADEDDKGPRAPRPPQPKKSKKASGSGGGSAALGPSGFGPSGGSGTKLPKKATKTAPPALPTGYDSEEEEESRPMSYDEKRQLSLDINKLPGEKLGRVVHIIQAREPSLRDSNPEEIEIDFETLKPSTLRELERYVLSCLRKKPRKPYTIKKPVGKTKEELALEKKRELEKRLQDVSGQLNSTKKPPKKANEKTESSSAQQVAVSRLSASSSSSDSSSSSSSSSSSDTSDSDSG", "conditions": "cited from earlier work"}, "BRD3 [2]": {"target": "T2, BRD3 (Homo sapiens, UniProt Q15059)", "T2 sequence (Q15059 whole entry)": "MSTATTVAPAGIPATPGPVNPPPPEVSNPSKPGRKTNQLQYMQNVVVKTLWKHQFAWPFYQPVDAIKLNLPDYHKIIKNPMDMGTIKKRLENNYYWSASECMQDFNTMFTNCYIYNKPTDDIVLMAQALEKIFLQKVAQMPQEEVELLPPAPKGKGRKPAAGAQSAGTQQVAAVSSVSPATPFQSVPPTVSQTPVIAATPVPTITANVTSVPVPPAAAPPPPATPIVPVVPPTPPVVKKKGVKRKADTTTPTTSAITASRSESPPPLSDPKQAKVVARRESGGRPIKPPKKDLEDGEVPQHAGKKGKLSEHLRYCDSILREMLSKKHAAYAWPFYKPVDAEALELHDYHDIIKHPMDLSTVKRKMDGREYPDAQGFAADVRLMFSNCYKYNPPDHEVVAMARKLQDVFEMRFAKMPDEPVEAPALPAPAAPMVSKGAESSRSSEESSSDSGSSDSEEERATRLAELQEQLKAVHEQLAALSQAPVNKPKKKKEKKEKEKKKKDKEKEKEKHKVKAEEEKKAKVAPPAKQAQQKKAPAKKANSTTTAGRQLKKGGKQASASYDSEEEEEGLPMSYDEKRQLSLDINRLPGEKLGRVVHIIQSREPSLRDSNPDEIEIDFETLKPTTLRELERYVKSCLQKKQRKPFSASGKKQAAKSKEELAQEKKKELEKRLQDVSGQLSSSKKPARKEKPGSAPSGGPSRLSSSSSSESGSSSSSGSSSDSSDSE", "conditions": "cited from earlier work"}, "BRD4 [3]": {"target": "T3, BRD4 (Homo sapiens, UniProt O60885)", "assay": "Rescue of dBRD4-BD1-induced BRD4 degradation in MM.1S cells (competition experiments)", "assay_type": "cell-based", "set-up": "endogenous in cells", "conditions": "competition with dBRD4-BD1"}, "BRD4 [4]": {"target": "T3, BRD4", "assay": "Competition of MZ1-induced BRD4 degradation with pan-BD1 or pan-BD2 inhibitors", "assay_type": "cell-based", "set-up": "endogenous in cells; host or cells: HEK293T", "conditions": "competition with pan-BET degrader MZ1"}, "BRD4 [5]": {"target": "T3, BRD4", "assay": "cell-based", "conditions": "HEK293, read-out: HEK293 (Dmax)"}, "BRD4 [6]": {"target": "T3, BRD4", "conditions": "BRD4 degradation, 6 hours, N = 1; for DC50: read-out: HEK293 (DC50)"}, "[7]": {"assay": "Solubility observed in AlphaScreen assay", "conditions": "required increased DMSO (1% v/v) in assay"}, "BRD4 [8]": {"target": "T3, BRD4", "assay": "Western blot BRD4 degradation in MV411 cells", "assay_type": "cell-based", "set-up": "endogenous in cells", "conditions": "6 hours, N = 1"}, "p38a kinase": {"target": "T4, p38a kinase (Homo sapiens, UniProt Q16539)", "T4 construct": "endogenous in cells; host or cells: MM.1S", "T4 sequence (Q16539 whole entry)": "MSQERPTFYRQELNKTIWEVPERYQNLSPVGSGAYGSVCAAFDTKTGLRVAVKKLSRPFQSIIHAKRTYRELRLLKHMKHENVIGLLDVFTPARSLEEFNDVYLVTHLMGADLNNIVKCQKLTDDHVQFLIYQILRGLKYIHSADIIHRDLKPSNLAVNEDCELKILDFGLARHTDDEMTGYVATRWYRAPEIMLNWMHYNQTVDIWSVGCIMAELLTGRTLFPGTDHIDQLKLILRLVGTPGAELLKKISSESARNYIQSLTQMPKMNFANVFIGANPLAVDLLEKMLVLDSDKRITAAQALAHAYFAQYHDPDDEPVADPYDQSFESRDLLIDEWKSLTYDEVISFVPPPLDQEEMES", "assay": "Western blot p38a levels in MM.1S cells", "assay_type": "cell-based", "conditions": "24-hour time-point or time-course study at 5 μM", "procedure": "(§1) FIG. 4A-4D: Degradation of BRD4 in MM.1S cells. (A) Representative blots for degradation of BRD4 after 24-hour treatment. (B) Quantified densitometry for three biological replicates of blots from (A). (C) Time-course study of BRD4 degradation by dBRD4-BD1. (D) Rescue of BRD4 degradation using pan-BD1, proteasome and neddylation inhibitors, but not pan-BD2 inhibitor, iBET-BD2.\n(§2) Western Blotting: MM.1S cells were seeded in 12-well plates at a density of 4×10^6 cells per well and treated with compounds for indicated times. Cells were transferred to 2 mL microcentrifuge tubes and harvested by low-speed centrifugation at 500×g. for 5 minutes. The well was rinsed, and the cell pellet washed twice with ice-cold PBS with centrifuging. The supernatant was carefully decanted, and the cell pellet was resuspended for lysis in 100 μL of RIPA buffer (ThermoFisher Scientific) supplemented with 1× cOmplete Mini Protease (Roche) and stored on ice for 10 minutes. After high-speed centrifugation (10 min at 10,000 X g.), protein concentrations were determined by the BCA assay (ThermoFisher Scientific) and normalized by total protein content."}, "9xHis-BRD4-BD1": {"target": "T5, 9xHis-BRD4-BD1 (Homo sapiens, UniProt O60885)", "T5 construct": "30 nM for His9-tagged BRD4-BD1 bromodomain and 50 nM for the biotinylated peptide were used; made in house", "assay": "AlphaScreen binding assay with His9-tagged BRD4-BD1 (1% DMSO)", "conditions": "1% v/v DMSO; mean of three independent trials in duplicate; read-out: BRD4-BD1 IC50 (apparent binding)"}, "BRD4 [9]": {"target": "T3, BRD4", "assay": "Western blot BRD4 degradation in MM.1S cells", "assay_type": "cell-based", "set-up": "endogenous in cells", "from_the_text": "as §1\nThe mixed suspension/adherent cells were subcultured at a 1:10 dilution by decanting suspended cells and dissociating adherent cells from plates in 0.25% trypsin/EDTA (Gibco) with 2 min incubation times. Cell-line authenticity was verified using the short-tandem-repeat (STR)-profiling service provided by ATCC.\nas §2"}, "BRD4 [10]": {"target": "BRD4 (Homo sapiens, UniProt O60885+Q96SW2)", "sequence (Q96SW2 whole entry, one chain of several)": "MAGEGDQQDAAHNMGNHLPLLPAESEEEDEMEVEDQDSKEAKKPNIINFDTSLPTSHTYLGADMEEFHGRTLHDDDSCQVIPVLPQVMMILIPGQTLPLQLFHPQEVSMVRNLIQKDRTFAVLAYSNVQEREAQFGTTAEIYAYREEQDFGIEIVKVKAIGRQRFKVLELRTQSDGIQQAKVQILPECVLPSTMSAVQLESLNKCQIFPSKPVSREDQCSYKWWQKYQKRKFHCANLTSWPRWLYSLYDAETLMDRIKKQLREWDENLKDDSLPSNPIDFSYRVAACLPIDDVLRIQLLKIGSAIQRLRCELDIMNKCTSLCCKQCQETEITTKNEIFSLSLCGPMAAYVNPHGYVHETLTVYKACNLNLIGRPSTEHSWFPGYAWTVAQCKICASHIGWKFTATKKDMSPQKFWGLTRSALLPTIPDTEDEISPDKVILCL", "assay": "TR-FRET ternary-complex formation", "assay_type": "biochemical"}, "BRD2 [11]": {"target": "T1, BRD2", "assay": "Western blot BRD2 levels in MM.1S cells", "assay_type": "cell-based", "procedure": "as §1, §2"}, "cMyc": {"system": "cMyc", "assay": "Western blot cMyc expression in MM.1S cells", "assay_type": "cell-based", "conditions": "compared with previously reported BRD4 degraders", "procedure": "as §2"}, "BRD3 [12]": {"target": "T2, BRD3", "assay": "Western blot BRD3 levels in MM.1S cells", "assay_type": "cell-based", "procedure": "as §1, §2"}, "MM.1S cells": {"system": "MM.1S cells", "assay": "72 hour Alamar blue cytotoxicity assay of MM.1S cells", "assay_type": "cell-based", "procedure": "FIG. 5: 72 hour Alamar blue cytotoxicity assay of MM.1S cells with compounds. Data reported as mean±SD of three independent trials of three replicates each.\nViability Assays: MM. 1 S cells were seeded in 96-well plates at approximately 20 000 cells per well (0.05 mL) and dosed with increasing compound concentrations in the presence of DMSO with three technical replicates per concentration. After incubation for 69 hours at 37° C., 10 μL of the Alamar Blue reagent (Invitrogen) was added to each well and the plates were incubated for 3 hours at 37° C. Fluorescence was determined using a Synergy plate reader (BioTek, Ex.: 560 nm, Em.: 590 nm) and dose-response data were normalized to untreated and blank wells containing 0.05% DMSO in cell culture media. Data analysis was performed using GraphPad Prism."}}, "note": "Where two headings read alike, the source gives them in different places. Peptide text beside a SMILES is read from it. * marks the point of attachment. Cbz = O=C(OCc1ccccc1)*"}
{"smiles": "COC(=O)C[C@@H]1N=C(c2ccc(Cl)cc2)c2c(sc(C(=O)NCCCCCNc3cccc4c3C(=O)N(C3CCC(=O)NC3=O)C4=O)c2C)-n2c(C)nnc21", "note": "(some centres unmarked) [ZXH-3-26]", "values": [{"measurement": "concentration of BRD2 upon BRD4 degradation", "setting": "BRD2 [1]", "result": "remain unchanged"}, {"measurement": "concentration of BRD3 upon BRD4 degradation", "setting": "BRD3 [2]", "result": "remain unchanged"}]}
{"smiles": "CC(=O)Nc1c(F)cc(C(=O)N[C@H]2CC[C@H](O)CC2)cc1O[C@@H](C)c1ccccc1", "note": "[iBET-BD2]", "values": [{"measurement": "rescue of BRD4 degradation by dBRD4-BD1", "setting": "BRD4 [3]", "result": "no effect"}, {"measurement": "prevention of MZ1-induced BRD4 degradation by competitor", "setting": "BRD4 [4]", "result": "neither BD1 nor BD2 inhibition was able to prevent BRD4 degradation"}]}
{"smiles": "NS(=O)(=O)OC[C@@H]1C[C@@H](n2ccc3c(N[C@H]4CCc5ccccc54)ncnc32)C[C@@H]1O", "note": "[MLN4924]", "values": [{"measurement": "rescue of BRD4 degradation by dBRD4-BD1", "setting": "BRD4 [3]", "result": "rescue of BRD4 degradation was observed"}]}
{"smiles": "Cc1ccc(C(C)C)cc1Oc1nccc(-c2c(-c3ccc(C(F)(F)F)cc3)ncn2C2CCN(CCNC(=O)COc3cccc4c3C(=O)N(C3CCC(=O)NC3=O)C4=O)CC2)n1", "note": "(centres unmarked) [Example 6]", "values": [{"measurement": "Dmax", "setting": "BRD4 [5]", "result": 95, "unit": "%"}, {"measurement": "DC50", "setting": "BRD4 [6]", "result": 810, "unit": "nM"}]}
{"smiles": "CC(=O)N[C@H](C(=O)N1C[C@H](O)C[C@H]1C(=O)NCc1ccc(-c2scnc2C)cc1)C(C)(C)SCCCCCCNC(=O)C[C@@H]1N=C(c2ccc(Cl)cc2)c2c(sc(C)c2C)-n2c(C)nnc21", "note": "[AT1]", "values": [{"measurement": "concentration of BRD2 upon BRD4 degradation", "setting": "BRD2 [1]", "result": "remain unchanged"}, {"measurement": "concentration of BRD3 upon BRD4 degradation", "setting": "BRD3 [2]", "result": "remain unchanged"}]}
{"smiles": "Cc1ccc(C(C)C)cc1Oc1nccc(-c2c(-c3ccc(C(F)(F)F)cc3)ncn2C2CCN(CCOCCOCCNC(=O)COc3cccc4c3C(=O)N(C3CCC(=O)NC3=O)C4=O)CC2)n1", "note": "(centres unmarked) [dBRD4-BD1]", "values": [{"measurement": "solubility", "setting": "[7]", "result": "poor solubility"}, {"measurement": "DC50", "setting": "BRD4 [8]", "result": 14, "unit": "nM"}, {"measurement": "MV411 (Dmax)", "setting": "BRD4 [8]", "result": 85, "unit": "%"}, {"measurement": "degradation of p38a", "setting": "p38a kinase", "result": "not observed"}, {"measurement": "IC50", "setting": "9xHis-BRD4-BD1", "result": 1360, "unit": "nM"}, {"measurement": "BRD4 degradation Dmax", "setting": "BRD4 [9]; 24-hour treatment", "result": 23, "unit": "%"}, {"measurement": "DC50", "setting": "BRD4 [9]; 24-hour treatment", "result": 280, "unit": "nM"}, {"measurement": "concentration above which BRD4 degradation diminished (hook effect)", "setting": "BRD4 [9]; 24-hour treatment", "result": "> 5", "unit": "µM"}, {"measurement": "time to maximal BRD4 degradation", "setting": "BRD4 [9]; time-course study at 5 μM", "result": 8, "unit": "h"}, {"measurement": "ternary-complex formation by TR-FRET", "setting": "BRD4 [10]", "result": "moderate ternary-complex formation"}, {"measurement": "BRD2 level at concentrations where BRD4 was degraded", "setting": "BRD2 [11]", "result": "upregulated"}, {"measurement": "degradation of BRD2", "setting": "BRD2 [11]; 24-hour treatment", "result": "not observed"}, {"measurement": "effect on cMyc expression", "setting": "cMyc", "result": "weaker effect on cMyc expression"}, {"measurement": "BRD3 level at concentrations where BRD4 was degraded", "setting": "BRD3 [12]", "result": "upregulated"}, {"measurement": "degradation of BRD3", "setting": "BRD3 [12]; 24-hour treatment", "result": "not observed"}, {"measurement": "HEK293 (Dmax)", "setting": "BRD4 [6]", "result": 100, "unit": "%"}, {"measurement": "DC50", "setting": "BRD4 [6]", "result": 500, "unit": "nM"}, {"measurement": "cytotoxicity", "setting": "MM.1S cells", "result": "lower observed cytotoxicity"}]}
{"smiles": "Cc1ccc(C(C)C)cc1Oc1nccc(-c2c(-c3ccc(C(F)(F)F)cc3)ncn2C2CCN(CCOCCOCCNC(=O)CN(C)c3cccc4c3C(=O)N(C3CCC(=O)NC3=O)C4=O)CC2)n1", "note": "(centres unmarked) [Example 4]", "values": [{"measurement": "Dmax", "setting": "BRD4 [5]", "result": 84, "unit": "%"}, {"measurement": "DC50", "setting": "BRD4 [6]", "result": 105, "unit": "nM"}]}
{"smiles": "CC(C)C[C@@H](C=O)NC(=O)[C@H](CC(C)C)NC(=O)[C@H](CC(C)C)NC(=O)OCc1ccccc1", "note": "[MG-132] (Cbz-Leu-Leu-Leu-aldehyde)", "values": [{"measurement": "rescue of BRD4 degradation by dBRD4-BD1", "setting": "BRD4 [3]", "result": "rescue of BRD4 degradation was observed"}]}
{"smiles": "Cc1ccc(C(C)C)cc1Oc1nccc(-c2c(-c3ccc(C(F)(F)F)cc3)ncn2C2CCN(CCOCCOCCNC(=O)CNc3cccc4c3C(=O)N(C3CCC(=O)NC3=O)C4=O)CC2)n1", "note": "(centres unmarked) [Example 5]", "values": [{"measurement": "Dmax", "setting": "BRD4 [5]", "result": 60, "unit": "%"}, {"measurement": "DC50", "setting": "BRD4 [6]", "result": 290, "unit": "nM"}]}
